Measured values reported in patent publication US11332483B2, “Naphthoquinone containing gold carbene complexes and methods of uses thereof” (BOARD OF REGENTS, THE UNIVERSITY OF TEXAS SYSTEM, priority 2017, dated 2022).
Read-outs that look alike come from different tables or passages of the source.

How the values were obtained:
[1] = test system: A549 lung cancer cells; assay: Cell proliferation (MTT) assay in A549 lung cancer cells; format: cell-based, human
Method: (§1) Cells were harvested and seeded into 96-well culture plates (Costar 07-200-90) in 100 μL of culture media. They were allowed to incubate overnight at 37° C. in the presence of 5% CO2. A549 was seeded at a density of 1000 cells/well, A2780 at 2500 cells/well, A2780CP at 3000 cells/well, and PC-3 at 2000 cells/well. The next day, appropriate serial dilutions of drug stocks in culture media were made. To each well of a 96 well plate was added 100 μL of the appropriate solution. After a total of three days, a […] aliquot of 3 mg/mL tetrazolium dye, 344,5-dimethylthiazol-2-yl)-2,5-diphenyltetrazolium bromide (Alfa Aesar L11939) was added to each well, followed by a 4 hr incubation period at 37° C. The medium was then removed, the resulting formazan was dissolved in […] DMSO and the respective absorbances were measured at 560-650 nm using a microplate reader (Molecular Devices, Sunnyvale, Calif.). Absorbance values were corrected for background and then normalized to wells containing untreated cells to allow for plate-to-plate comparisons. The data are shown as mean inhibition of proliferation or growth as a percentage of control cells and are from 2-3 replicate experiments. Resulting dose response curves were subjected to linear regression analysis (Origin by OriginLab, Inc.) for determination of IC50 values.

[2] = test system: 2780CP ovarian (multi-drug resistant); assay: Cell proliferation (MTT) assay in 2780CP ovarian cells; format: cell-based; settings: Table 3; error is standard error of the mean
Method: (§2) Further anti-proliferation studies were carried out with complex 1 and its naphthoquinone component 4[H][Cl] using the following cell lines: A2780 ovarian (a wt-p53 cell line sensitive to platinum treatment), 2780CP ovarian (isogenic to A2780 but expressing multi-drug resistance (MDR)), and PC-3 prostate (p53 null) (Table 3).
as §1, with “The data are shown as mean inhibition of proliferation or growth as a percentage of control cells and are from 2-3 replicate experiments. Resulting dose response curves were subjected to linear regression analysis (Origin by OriginLab, Inc.) for determination of IC50 values.” left out

[3] = test system: PC-3 prostate (p53 null); assay: Cell proliferation (MTT) assay in PC-3 prostate cells; format: cell-based; settings: Table 3; error is standard error of the mean
Method: as §2
as §1, with “The data are shown as mean inhibition of proliferation or growth as a percentage of control cells and are from 2-3 replicate experiments. Resulting dose response curves were subjected to linear regression analysis (Origin by OriginLab, Inc.) for determination of IC50 values.” left out

[4] = test system: A549 lung cancer cells; assay: ICP-MS detection of intracellular Au (cellular uptake); settings: A549 cells, in words
Method: Roughly 7−8×10^6 cells were grown to 70-80% confluence in T-75 cell culture flasks (Thermo 130190) and treated with respective compound in RPMI medium supplemented with 10% FBS and antibiotics for the desired incubation time. The medium was then removed and cells were washed with 8 mL 1× warm PBS. 2 mL 1×PBS was then added to each flask, and the cells were removed by scraping. Each cell suspension was then pipetted into a clean, labeled 15 mL centrifuge tube (Thermo 339650). Cells were pelleted by centrifuging at 1,000 rpm for 5 min in an Eppendorf 5804 with a swing-bucket rotor. The supernatant was removed by vacuum aspiration, and the pellet was resuspended in 50 μL autoclaved deionized water. Suspension/lysates were then kept at −80° C. until further use. After thawing, the lysates were then sonicated using a Branson Digital Sonifier, and 5 μL aliquots were taken for determination of protein content of the sample. Lysates were digested with 80 μL aqua regia and heated to 65° C. for 1 h. Digested lysates were diluted with 4 mL 3% Trace Metal Grade HCl and gold content was measured on a Perkin Elmer NexION 300× set to detect gold at 197 m/z. Gold concentrations were quantified using the linear range of a standard curve generated by serial dilution of an ICP-MS gold standard (Ricca MSAU1KH-100) in 3% HCl. Values were then normalized to protein content as determined using a Modified Lowry Protein Assay Kit (Thermo 23240) and known concentrations of bovine serum albumin (Fisher 9048-46-8).
The Modified Lowry Assay was used to determine the protein content of each sample for normalization purposes. The standard curve for each run was made from a 2-fold serial dilution of fresh 5 mg/mL BSA solution. Aliquots were diluted to within the linear range of the standard curve using autoclaved DI water, and subjected to the Modified Lowry Assay in round-bottomed 96-well clear plates (Fisher 12565500). […] All other aspects of the procedure were as detailed in the microplate procedure instructions that come with the kit.

[5] = test system: A549 cells; assay: Detection of intracellular ROS by flow cytometry (CM-H2DCFDA); format: cell-based, human; settings: A549, 2.5 μM, 6 h incubation
Method: To establish whether or not the complexes of this disclosure would increase intracellular ROS levels, A549 cells were treated with each complex in a dose responsive manner.
Tumor cells (1×10^6) were plated in a 6-well plate overnight and then incubated with media containing various complexes described at concentrations of 0.625-2.5 μM. Control cells were treated with vehicle only. After a 6 h. incubation, the cells were washed with PBS, detached with 0.250 mL 1× trypsin, collected in a 15 mL conical tube, and pelleted by centrifugation (3 min @ 300 g) at 5° C. The resulting pellet was again washed 2× with cold PBS and pelleted at 5° C. […] The cells were then pelleted, washed with 2 mL PBS, and re-suspended in PBS containing 2 μg/mL propidium iodide (PI, Chemodex P0023) for a final cell concentration of 0.5×10^6 cells/mL. Control samples of unstained cells, cells stained with only CM-H2DCFDA, and cells stained with only PI were also prepared. Each sample was added to one well of a 96-well plate. Samples were then subjected to FACS analysis using a Millipore Guava easyCyte 8 and analyzed using the Guava inCyte software.

[6] = test system: A549 lung cancer cell xenografts in zebrafish; settings: 0.5 μM, bright field images
Method: First, zebrafish embryos were divided into 7 groups at an average of 65 embryos per group. […] Briefly, live human lung cancer cells (A549) were labeled with CM-DiI (red) and only live cells were transplanted via injection into the perivitelline space of 30 zebrafish embryos 24 hours post fertilization (hpf) (Sittaramane et al., 2015; Veinotte et al., 2014; Xie et al., 2015). Tumor inoculated zebrafish embryos were allowed to grow for one day till 48 hpf. This allows for establishment of the cancer cells in the host zebrafish embryos.

[7] = test system: A549 cells; settings: A549, 24 h
Method: Control cells were treated with vehicle only. At 24 h, the media was collected and the cells were washed with PBS. The PBS washing was collected and the attached cells were then subjected to 0.5× trypsin (diluted with PBS) for 2 min. All media and washings were collected, pelleted by centrifugation (3 min @ 300 g) and washed twice with cold PBS. […] After this, 100 μL of cell suspension was added to 1.5 mL centrifuge tubes, followed by 5 μL each of Annexin V-FITC and propidium iodide (PI, 50 μg/mL) solution. Control samples of unstained cells, cells stained with only Annexin V-FITC, and cells stained with only PI were also prepared. Samples were allowed to incubate in the dark for 15 min at ambient temperature. After incubation, each sample was diluted with 200 μL of Annexin V binding buffer, and the resulting 300 μL sample was added to one well of a 96-well plate. Samples were then subjected to FACS analysis using a Millipore Guava easyCyte 8 and analyzed using Guava inCyte software.

For `Cc1cc(C)c(-n2c3c([n+](-c4c(C)cc(C)cc4C)[c]2[Au-][c]2n(-c4c(C)cc(C)cc4C)c4c([n+]2-c2c(C)cc(C)cc2C)C(=O)c2ccccc2C4=O)C(=O)c2ccccc2C3=O)c(C)c1.[Cl][Ag-][Cl]` [Compound 1, [Bis(1,3-dimesityl-4,5-naphthoquino-imidazol-2-ylidene)-gold(I)] [Silver(I)dichloride]], the “Fold Difference relative to 1” value ([1]; A549 IC50 relative to complex 1) was 1, the IC50 ([1]; A549 lung cancer cells, MTT, 72 h, read-out: IC50) was 73 ± 16 nM and the IC50 ([1]; Table 3, error is standard error of the mean, read-out: IC50 A549 Lung) was 73 ± 16 nM. The IC50 [2] was 54 ± 6 nM, the IC50 [3] was 96 ± 17 nM and the “intracellular Au levels (ICP-MS)” value [4] was “identical”. For the same molecule, the “fluorescence associated cell population shift (intracellular ROS increase)” value [5] was 27 fold, the “non-specific cell death in the developing zebrafish larvae” value [6] was “no non-specific cell death” and the “induction of apoptosis (annexin-V/PI)” value [7] was “induces controlled cell death via an apoptotic mechanism”.
